# Experimental data as given in US6995018B1, “Complex formed by N-linked glycoproteins (SIBLINGS)and Factor H” (The United States of America as represented by the …, priority 1999, dated 2006).
# Tests used:
# [1] = test system: Murine erythroleukemia (MEL) cells; test: Alternate complement mediated cell lysis assay, MEL cells with normal human serum; assay type: cell-based; conditions: for effect of pretreatment on protective effect of rOPN: pretreatment followed by rOPN 10 μg/mL; for protection of MEL cells from complement-mediated lysis (cell viability): 10 μg/mL protein 10 min, normal human serum 1:10, 2 h, trypan blue and MTT
# Experimental: MEL cells were rinsed three times with GVB-MgEGTA buffer, resuspended in GVB-MgEGTA at a density of 5×10^6 cells/mL, and incubated at 37° C. with different concentrations of normal human serum. After 2 hrs, cells were harvested for trypan blue exclusion assay. The thiazolium blue assay was carried out at identical serum dilutions and cell viability was determined by absorbance at 560 nm. Each data point represents the average of three measurements. The error bars represent the standard deviation of the mean (A). MEL cells in GVB-MgEGTA buffer were incubated with 10 μg/mL of either rBSP or rOPN for 10 minutes at 37° C. Normal human serum was then added at a dilution of 1:10 and the cells were returned to 37° C., incubated for 2 hours and cell viability was determined by trypan blue and thiazolyl blue (MTT) reduction assays (B). Data from 3–7 separate experiments, with treatment replicates in triplicate, was combined to yield mean values. Error bars represent the standard error of the mean. N=number of experiments combined.
# MEL cells prepared as in FIG. 8 were treated with normal rBSP (10 μg/mL), rBSP whose RGD sequence had been mutated to KAE ([…]), and either GRGDS (SEQ ID NO: 10) peptide (400 μM) followed by rBSP or an αVβ3 antibody (1:4000) followed by rBSP for 10 minutes prior to the addition of normal human serum. The cells were then incubated for […] after which cell viability determined using the MTT assay (A). A cohort of MEL cells were pretreated with rOPN (10 μg/mL) alone, GRGDS (SEQ ID NO: 10) peptide followed by rOPN, the αVβ3 antibody followed by rOPN, or an anti-CD44 antibody (Chemicon, Co.) followed by rOPN, or hyaluronan (HA) followed by rOPN (B). Cells were then treated with normal human serum and viability assayed as in FIG. 8. […] The data represents the mean and standard error of the mean for three separate experiments. Statistical significance was determined by analysis of variance. Percent cell viability was determined using A560 absorbance values of various conditions and a control where no serum had been added (100% viable). The cross-hatched region represents that range of values observed when normal human serum (1:10) alone was added (maximal cell death).
# The first model system employed was a murine erythroleukemia (MEL) cell line which when incubated with normal human serum can be readily assayed for alternate complement pathway (ACP)-mediated cell lysis (Varnet et al., Curr. Opin. Cell Biol., 8(5):724–730, 1996). Cell survival was measured by both trypan blue dye exclusion and by thiazolyl blue (MTT) reduction by living mitochondria. Titration with dilutions of normal human serum and time courses were carried out to define optimal incubation conditions. At 1:10 dilution, human serum totally lysed the MEL cells as measured by both assay systems (FIG. 8A).
# Murine erytliroleukemia (MEL) cells (a gift of Dr. Marilyn Farquhar, Univ. CA San Diego.) grown in DMEM containing 10% fetal bovine serum and 4 mM glutamine were rinsed three times with gelatin veronal buffer with Mg2^+ and EGTA (GVB-MgEGTA, Sigma, St. Louis, Mo.). Cells were resuspended in GVB-MgEGTA at a density of 5×10^6 cells/mL and incubated at 37° C. with different concentrations of normal human serum diluted in GVB-MgEGTA. After 2 h, cells were harvested for trypan blue exclusion assay by removing a 50 μL aliquot, incubating for 15 minutes in 0.4% trypan blue, and counting viable cells under an inverted microscope. The thiazolium blue assay was carried out at identical serum dilutions by incubating a 50 μL aliquot of the cell suspension in an equal volume of 1 mg/mL thiazolyl blue (MTT) for 45 min. Cell viability was determined spectrophotometrically by absorbance at 560 nm. Cells in GVB-MgEGTA buffer were pre-incubated with 10 μg of either rBSP, rDMP1, or rOPN in 1 mL for 10 minutes at 37° C. […]
# [2] = test system: MCF-7 breast cancer cells; test: Alternate complement pathway cell lysis assay with guinea pig serum, MCF-7; assay type: cell-based, human; conditions: MCF-7, 10 μg/mL, guinea pig serum 1:5, trypan blue and MTT
# Experimental: (§1) Human cancer cell lines, MCF-7 (A) and U-266 (B) cells were rinsed three time with GVB-MgEGTA buffer and subsequently treated exactly as in the MEL cell complement-mediated cell lysis assay described above except complement active guinea pig serum (GPS) was substituted for human serum. Three different dilutions of GPS were assayed. For cultures pretreated with 10 μg/mL BSP or OPN, the dilution of GPS used was 1:5. Cell viability was determined by both trypan blue exclusion (solid bar) and MTT (open bar) assay. The bars represent the mean values of triplicate samples and the error bars are the standard deviation values.
# (§2) Murine erytliroleukemia (MEL) cells (a gift of Dr. Marilyn Farquhar, Univ. CA San Diego.) grown in DMEM containing 10% fetal bovine serum and 4 mM glutamine were rinsed three times with gelatin veronal buffer with Mg2^+ and EGTA (GVB-MgEGTA, Sigma, St. Louis, Mo.). Cells were resuspended in GVB-MgEGTA at a density of 5×10^6 cells/mL and incubated at 37° C. with different concentrations of normal human serum diluted in GVB-MgEGTA. […] Cell viability was determined spectrophotometrically by absorbance at 560 nm. […] Normal human serum collected for good complement activity was then added at a dilution of 1:10 and the cells returned to 37° C. for 2 hours and cell viability was determined by trypan blue-exclusion and MTT assays. […]
# [3] = test system: U-266 myeloma cells; test: Alternate complement pathway cell lysis assay with guinea pig serum, U-266; assay type: cell-based, human; conditions: U-266, 10 μg/mL, guinea pig serum 1:5, trypan blue and MTT
# Experimental: as §1, §2
# [4] = target: T1, purified human complement Factor H (Homo sapiens, UniProt P08603); test: Steady state fluorescence titration of Factor H with SIBLINGS proteins; assay type: binding; conditions: fluorescence quenching at 347 nm, excitation 295 nm
# T1 construct: purchased Quidel Corporation (San Diego, Calif.)
# T1 sequence (P08603 19-1231): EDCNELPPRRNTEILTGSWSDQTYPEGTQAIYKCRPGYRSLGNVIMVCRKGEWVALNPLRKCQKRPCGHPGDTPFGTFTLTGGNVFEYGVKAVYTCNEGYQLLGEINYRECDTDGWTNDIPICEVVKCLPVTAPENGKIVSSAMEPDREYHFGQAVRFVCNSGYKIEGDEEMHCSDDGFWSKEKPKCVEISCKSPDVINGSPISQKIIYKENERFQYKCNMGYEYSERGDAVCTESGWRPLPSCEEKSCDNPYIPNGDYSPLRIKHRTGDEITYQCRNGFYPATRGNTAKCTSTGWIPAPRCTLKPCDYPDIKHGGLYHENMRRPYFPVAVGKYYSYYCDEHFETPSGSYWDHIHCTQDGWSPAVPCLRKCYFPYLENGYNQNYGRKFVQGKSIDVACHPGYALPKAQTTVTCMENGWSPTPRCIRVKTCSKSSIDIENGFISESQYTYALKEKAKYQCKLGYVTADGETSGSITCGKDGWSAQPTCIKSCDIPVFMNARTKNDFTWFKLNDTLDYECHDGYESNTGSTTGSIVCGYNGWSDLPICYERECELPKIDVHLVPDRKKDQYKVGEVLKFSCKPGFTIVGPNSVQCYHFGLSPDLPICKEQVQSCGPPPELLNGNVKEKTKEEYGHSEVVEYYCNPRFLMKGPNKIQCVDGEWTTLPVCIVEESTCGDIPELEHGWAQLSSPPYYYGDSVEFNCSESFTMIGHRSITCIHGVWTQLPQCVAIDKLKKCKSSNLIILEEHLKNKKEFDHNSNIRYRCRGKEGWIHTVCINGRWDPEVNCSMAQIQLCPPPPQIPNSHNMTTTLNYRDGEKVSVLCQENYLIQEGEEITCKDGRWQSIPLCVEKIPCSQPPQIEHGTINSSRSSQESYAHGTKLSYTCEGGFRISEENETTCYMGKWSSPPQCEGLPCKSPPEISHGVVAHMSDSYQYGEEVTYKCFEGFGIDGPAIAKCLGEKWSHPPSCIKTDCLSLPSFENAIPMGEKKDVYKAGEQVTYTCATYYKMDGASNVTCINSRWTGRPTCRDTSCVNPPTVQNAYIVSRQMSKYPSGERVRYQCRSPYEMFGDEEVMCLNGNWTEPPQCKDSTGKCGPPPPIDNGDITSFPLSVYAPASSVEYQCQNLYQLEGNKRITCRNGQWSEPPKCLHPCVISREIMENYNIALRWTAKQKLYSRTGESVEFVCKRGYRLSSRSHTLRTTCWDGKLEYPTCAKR
# Excerpt: FIGS. 3A and 3B are graphs which show the result of a titration of Factor H with BSP.
# The salient structural features of Factor H include 20 short consensus repeats (SCRs) that contain four cysteine residues forming two disulfide bonds per repeat. In addition, each SCR contains one conserved tryptophan residue per repeat and Factor H is known to interact with several sialic acid-containing proteins. Therefore, binding interactions between members of the SIBLINGS family of proteins and Factor H can be studied by steady state fluorescence.
# Steady state fluorescence studies were accomplished by titrating purified human complement Factor H with rBSP, rOPN, and rDMP1 followed by excitation at 295 nm and monitoring emission between 300 and 450 nm. The emission profile of Factor H alone yields a peak at 347 nm. The addition of rBSP, rOPN, or rDMP1 in nm increments causes a relative fluorescent intensity quenching. Conversion of the fluorescent intensity titration into a binding curve by determining the fraction of binding sites occupied as the fractional change in fluorescence quenching at 347 nm yields a saturable binding curve. […] Given that normal serum concentration of Factor H is ^˜0.5 mg/mL it is probable that virtually all BSP, OPN, and DMP1 in serum will be complexed with Factor H.
substance,measurement,setting,value
GRGDS: synthetic peptide used to compete with SIBLINGS proteins for integrin type binding (Calbiochem-NovaBiochem) [reference compound],effect of pretreatment on protective effect of rBSP,"[1]; MEL cells, GRGDS 400 μM or αVβ3 antibody 1:4000 followed by rBSP 10 μg/mL, MTT",negated the protective effect
same,effect of pretreatment on protective effect of rOPN,"[1]; MEL cells, MTT",reduced cell survival
same,effect of preincubation on DMP1 protection,[1]; cells preincubated before DMP1,diminished but did not abolish
"OPN: osteopontin, SIBLINGS family member; recombinant from adenoviral construct",survival and protection from complement-mediated cell lysis,[2],enhanced survival and protection
same,survival and protection from complement-mediated cell lysis,[3],enhanced survival and protection
same,dose relation of protection of MEL cells from alternate complement pathway-mediated lysis,[1],dose related responses
same,protection of MEL cells from complement-mediated lysis (cell viability),[1],protect
same,protection of MEL cells from complement-mediated lysis (cell viability),[1]; listed as recombinant OPN,conferred protection
same,binding constant with Factor H,[4],in the nM range
hyaluronan [reference compound],effect of pretreatment on protective effect of rOPN,"[1]; MEL cells, MTT",reduced the protective effect
rBSP-Factor H: pre-formed complex of rBSP and Factor H,protection of MEL cells from complement-mediated lysis (cell viability),[1],abolished the protection
rOPN-Factor H: pre-formed complex of rOPN and Factor H,protection of MEL cells from complement-mediated lysis (cell viability),[1],abolished the protection
